These results are taken from publication PMC12598616, “Design and optimization of caspase-1-responsive fluorescent probes for pyroptosis imaging and anti-pyroptosis drug screening” (Chemical Science, 2025).

The assay concerns Cas-1 in primary NP cells. The assay is described as follows: Intracellular imaging in nucleus pulposus cells. The assay is classed as cell-based, rat. The conditions noted are these: H2O2 2 mM 30, 60, 90 min; FPy1 5 μM 1 h. From the text:
With advancing age, the prevalence of degenerative bone and joint disorders (DBJDs), such as intervertebral disc degeneration (IVDD) and osteoarthritis (OA), increases markedly among middle-aged and elderly individuals.[30] Chronic inflammation has been identified as the underlying cause of DBJDs. In particular, inflammasome-mediated pyroptosis has been recognized as a primary contributor to sustained inflammatory responses.[31] Consequently, pyroptosis-associated biomarkers represent promising indicators for the diagnosis and monitoring of DBJDs. IVDD, a chronic degenerative condition closely related to natural aging, has become one of the leading causes of disability worldwide.[32] […] The imaging results indicated a positive correlation between fluorescence intensity and H2O2-stimulation time (Fig. 4b). […] Encouraged by the promising imaging results of FPy1 in NP cells and cell spheroids, we further assessed its capability for imaging pytoptosis in vivo. […] Following intradiscal injection of FPy1, the fluorescence images of the tail modeling site were obtained from the dorsal aspect. […] Histological scoring result corroborated these findings, reflecting the same trends as with fluorescence imaging observed using FPy1 (Fig. S13b). […]
The cytotoxicity of FPy1 and YPy1 to THP-1 was evaluated by cell counting kit-8 (CCK-8). […]

As for “–FLTDG– [FPy1, RhoB donor, hNR quencher]”, the “intracellular fluorescence intensity in NP cells” value is given as “increased with the duration of H2O2 stimulation”.
